Source: ChEMBL document CHEMBL4308841, “Synthesis, in vitro antiproliferative activity, and kinase inhibitory effects of pyrazole-containing diarylureas and diarylamides” (Eur J Med Chem, 2018)
pIC50: −log10 of the molar value.

How the values were obtained:
[1] = tested on: NCI-H522; assay: Growth inhibition of human NCI-H522 cells assessed as cell growth at 10 uM incubated for 48 hrs by sulforhodamine B assay relative to control; format: functional; details: NCI-H522, 48 h, read-out: Activity
[2] = tested on: SR; assay: Growth inhibition of human SR cells incubated for 48 hrs by sulforhodamine B assay; format: functional, cell-based
[3] = tested on: HCT-116; assay: Growth inhibition of human HCT116 cells incubated for 48 hrs by sulforhodamine B assay; format: functional, cell-based; details: HCT-116, 48 h
[4] = tested on: UACC-62; assay: Growth inhibition of human UACC62 cells incubated for 48 hrs by sulforhodamine B assay; format: functional, cell-based; details: UACC-62, 48 h
[5] = tested on: OVCAR-3; assay: Growth inhibition of human OVCAR3 cells incubated for 48 hrs by sulforhodamine B assay; format: functional, cell-based; details: OVCAR-3, 48 h
[6] = tested on: 786-0; assay: Growth inhibition of human 786-0 cells incubated for 48 hrs by sulforhodamine B assay; format: functional, cell-based; details: 786-0, 48 h
[7] = tested on: RXF 393; assay: Growth inhibition of human RXF393 cells incubated for 48 hrs by sulforhodamine B assay; format: functional, cell-based; details: RXF 393, 48 h
[8] = tested on: MDA-MB-468; assay: Growth inhibition of human MDA-MB-468 cells incubated for 48 hrs by sulforhodamine B assay; format: functional, cell-based; details: MDA-MB-468, 48 h
[9] = tested on: NCI-H226; assay: Growth inhibition of human NCI-H226 cells assessed as cell growth at 0.01 uM incubated for 48 hrs by sulforhodamine B assay relative to control; format: functional; details: NCI-H226, 48 h, read-out: Activity
[10] = tested on: OVCAR-3; assay: Growth inhibition of human OVCAR3 cells assessed as cell growth at 0.01 uM incubated for 48 hrs by sulforhodamine B assay relative to control; format: functional; details: OVCAR-3, 48 h, read-out: Activity
[11] = tested on: NCI/ADR-RES; assay: Growth inhibition of human NCI/ADR-RES cells assessed as cell growth at 0.01 uM incubated for 48 hrs by sulforhodamine B assay relative to control; format: functional; details: read-out: Activity
[12] = tested on: T47D; assay: Growth inhibition of human T47D cells assessed as cell growth at 0.01 uM incubated for 48 hrs by sulforhodamine B assay relative to control; format: functional; details: read-out: Activity
[13] = tested on: HCT-116; assay: Growth inhibition of human HCT116 cells assessed as cell growth at 0.1 uM incubated for 48 hrs by sulforhodamine B assay relative to control; format: functional; details: HCT-116, 48 h, read-out: Activity
[14] = tested on: HCT-15; assay: Growth inhibition of human HCT15 cells assessed as cell growth at 0.1 uM incubated for 48 hrs by sulforhodamine B assay relative to control; format: functional; details: HCT-15, 48 h, read-out: Activity
[15] = tested on: M14; assay: Growth inhibition of human M14 cells assessed as cell growth at 0.1 uM incubated for 48 hrs by sulforhodamine B assay relative to control; format: functional; details: M14, 48 h, read-out: Activity
[16] = tested on: SK-MEL-28; assay: Growth inhibition of human SK-MEL-28 cells assessed as cell growth at 0.1 uM incubated for 48 hrs by sulforhodamine B assay relative to control; format: functional; details: SK-MEL-28, 48 h, read-out: Activity
[17] = tested on: SK-MEL-5; assay: Growth inhibition of human SK-MEL-5 cells assessed as cell growth at 0.1 uM incubated for 48 hrs by sulforhodamine B assay relative to control; format: functional; details: SK-MEL-5, 48 h, read-out: Activity
[18] = tested on: SR; assay: Growth inhibition of human SR cells assessed as cell growth at 1 uM incubated for 48 hrs by sulforhodamine B assay relative to control; format: functional; details: read-out: Activity
[19] = tested on: NCI-H23; assay: Growth inhibition of human NCI-H23 cells assessed as cell growth at 1 uM incubated for 48 hrs by sulforhodamine B assay relative to control; format: functional; details: NCI-H23, 48 h, read-out: Activity
[20] = tested on: Malme-3M; assay: Growth inhibition of human MALME-3M cells assessed as cell growth at 1 uM incubated for 48 hrs by sulforhodamine B assay relative to control; format: functional; details: read-out: Activity
[21] = tested on: SK-MEL-2; assay: Growth inhibition of human SK-MEL-2 cells assessed as cell growth at 1 uM incubated for 48 hrs by sulforhodamine B assay relative to control; format: functional; details: SK-MEL-2, 48 h, read-out: Activity
[22] = tested on: NCI/ADR-RES; assay: Growth inhibition of human NCI/ADR-RES cells assessed as cell growth at 1 uM incubated for 48 hrs by sulforhodamine B assay relative to control; format: functional; details: read-out: Activity
[23] = tested on: NCI-H23; assay: Growth inhibition of human NCI-H23 cells assessed as cell growth at 100 uM incubated for 48 hrs by sulforhodamine B assay relative to control; format: functional; details: NCI-H23, 48 h, read-out: Activity
[24] = tested on: SF-539; assay: Growth inhibition of human SF539 cells assessed as cell growth at 100 uM incubated for 48 hrs by sulforhodamine B assay relative to control; format: functional; details: SF-539, 48 h, read-out: Activity
[25] = tested on: Malme-3M; assay: Growth inhibition of human MALME-3M cells assessed as cell growth at 100 uM incubated for 48 hrs by sulforhodamine B assay relative to control; format: functional; details: read-out: Activity
[26] = tested on: SK-MEL-28; assay: Growth inhibition of human SK-MEL-28 cells assessed as cell growth at 100 uM incubated for 48 hrs by sulforhodamine B assay relative to control; format: functional; details: SK-MEL-28, 48 h, read-out: Activity
[27] = tested on: SK-MEL-5; assay: Growth inhibition of human SK-MEL-5 cells assessed as cell growth at 100 uM incubated for 48 hrs by sulforhodamine B assay relative to control; format: functional; details: SK-MEL-5, 48 h, read-out: Activity
[28] = tested on: UACC-62; assay: Growth inhibition of human UACC62 cells assessed as cell growth at 100 uM incubated for 48 hrs by sulforhodamine B assay relative to control; format: functional; details: UACC-62, 48 h, read-out: Activity
[29] = tested on: OVCAR-5; assay: Growth inhibition of human OVCAR5 cells assessed as cell growth at 100 uM incubated for 48 hrs by sulforhodamine B assay relative to control; format: functional; details: OVCAR-5, 48 h, read-out: Activity
[30] = read-out: LC50 (the source's name)
[31] = read-out: pLC50 (the source's name) (converted)

COc1cc(Cl)cc(-c2nn(-c3cccc(NC(=O)c4ccc(N5CCOCC5)c(C(F)(F)F)c4)c3)cc2-c2ccncc2)c1
growth at 10 µM [1]: 52.7% | GI50 ([2]; read-out: GI50): 3.06 µM | CC50 [2, 30]: > 100 µM | TGI ([2]; read-out: TGI): > 100 µM | GI50 ([2]; read-out: pGI50 (converted)): 3.09 µM | CC50 [2, 31]: > 100 µM | TGI ([2]; read-out: pTGI (converted)): > 100 µM | pIC50 [3]: 5.02 | GI50 ([3]; read-out: GI50): 9.54 µM | CC50 [3, 30]: > 100 µM | TGI ([3]; read-out: TGI): > 100 µM | GI50 ([3]; read-out: pGI50 (converted)): 9.55 µM | CC50 [3, 31]: > 100 µM | TGI ([3]; read-out: pTGI (converted)): > 100 µM | pIC50 [4]: 5.04 | GI50 ([4]; read-out: GI50): 9.1 µM | CC50 [4, 30]: > 100 µM | TGI ([4]; read-out: TGI): > 100 µM | GI50 ([4]; read-out: pGI50 (converted)): 9.12 µM | CC50 [4, 31]: > 100 µM | TGI ([4]; read-out: pTGI (converted)): > 100 µM | pIC50 [5]: 4.27 | GI50 ([5]; read-out: GI50): 5.31 µM | CC50 [5, 30]: > 100 µM | TGI ([5]; read-out: TGI): > 100 µM | GI50 ([5]; read-out: pGI50 (converted)): 53.7 µM | CC50 [5, 31]: > 100 µM | TGI ([5]; read-out: pTGI (converted)): > 100 µM | GI50 ([6]; read-out: GI50): 3.73 µM | CC50 [6, 30]: > 100 µM | TGI ([6]; read-out: TGI): 29.6 µM | GI50 ([6]; read-out: pGI50 (converted)): 3.24 µM | CC50 [6, 31]: > 100 µM | TGI ([6]; read-out: pTGI (converted)): 29.5 µM | LC50 [7]: > 100 µM | GI50 ([7]; read-out: GI50): 0.83 µM | TGI ([7]; read-out: TGI): 23.9 µM | GI50 ([7]; read-out: pGI50 (converted)): 0.813 µM | TGI ([7]; read-out: pTGI (converted)): 24 µM | pIC50 [8]: 4.92 | GI50 ([8]; read-out: GI50): 1.21 µM | CC50 [8, 30]: > 100 µM | TGI ([8]; read-out: TGI): > 100 µM | GI50 ([8]; read-out: pGI50 (converted)): 12 µM | CC50 [8, 31]: > 100 µM | TGI ([8]; read-out: pTGI (converted)): > 100 µM | growth at 0.01 µM [9]: 94% | growth at 0.01 µM [10]: 100% | growth at 0.01 µM [11]: 96% | growth at 0.01 µM [12]: 94% | growth at 0.1 µM [13]: 97% | growth at 0.1 µM [14]: 85% | growth at 0.1 µM [15]: 96% | growth at 0.1 µM [16]: 103% | growth at 0.1 µM [17]: 99% | growth at 1 µM [18]: 52% | growth at 1 µM [19]: 96% | growth at 1 µM [20]: 58% | growth at 1 µM [21]: 98% | growth at 1 µM [22]: 92% | growth at 100 µM [23]: 38% | growth at 100 µM [24]: 2% | growth at 100 µM [25]: 23% | growth at 100 µM [26]: 19% | growth at 100 µM [27]: 21% | growth at 100 µM [28]: 10% | growth at 100 µM [29]: 38%
